Source: patent publication US20240284907A1, “NOVEL DERIVATIVES OF NON-CODED AMINO ACIDS AND THEIR USE AS HERBICIDES” (FortePhest LTD., priority 2021, published 2024)

System: Seeds of Lettuce R. (Super-Jericho)
Test: Filter paper bioassay with lettuce seeds: germination and early plant development, Minimal Effective Concentration (MEC)
Type: in vivo
Conditions: lettuce seeds on filter paper, 0 to 1 mmol/l, visually assessed after 6 days
Excerpt: Materials: Seeds of Lettuce R. (Super-Jericho, non-sterilized) were obtained from Ben Shahar Moshe Ltd., 99% purity. The test compounds listed in the Table 2 below were synthetized de novo or purchased from different vendors.
Filter Paper Bioassays with Lettuce seeds: The protocol is following Bertin et al. 2009 and Movellan et al. 2014 with specified modifications as described below.
Seeds were placed on Whatman no. 1 filter paper (Whatman, Middlesex, U.K.) in Petri dishes (10 seeds per plate) with 2.0 ml of aqueous solution of a test material in concentration ranged from 0 (control) to 1 mmol/l were placed in a tray tilted at 45[…]. The trays were kept in dark for 48 hours and then transferred to the growth chamber with 6/18 dark/light cycle for 4 days. Each experiment was performed at least with two repeats.
The development of plants' radicle and shoots were visually assessed 6 days after the beginning of the test to determine Minimal Effective Concentration (MEC) of a test material. In the context of the invention, MEC is defined as the lowest concentration level of a test material that caused deviation (absence of germination or malformation of radicle or shoots) from the plant's development in the Control group.

Compound | Score (activity score of Minimal Effective Concentration, MEC)
O=C(O)CCc1cc(Cl)sc1Cl [compound 5606, 3-(2,5-dichlorothiophen-3-yl)propanoic acid] | Moderate (0.1 mM)
CCOC(=O)Cc1csc(Cl)c1 [compound 5796, ethyl(5-chlorothiophen-3-yl)acetate] | Moderate (0.1 mM)
2-amino-3-(1H-1,2,4-triazol-1-yl)propanoic acid dihydrochloride [compound 5633, 2-amino-3-(1H-1,2,4-triazol-1-yl)propanoic acid dihydrochloride [HCl]] | Strong (0.01 mM)
CS(=O)(=O)NCCNCCc1cc(Cl)sc1Cl [compound 5723, N-(2-{[2-(2,5-dichlorothiophen-3-yl)ethyl]amino}ethyl)methane sulfonamide] | Strong (0.01 mM)
O=C(O)C(F)(F)c1ccc(F)c(Br)n1 [compound 6681, (6-bromo-5-fluoropyridin-2-yl)(difluoro)acetic acid] | very strong
2-(2,5-dichloro-1,3-thiazol-4-yl)ethan-1-amine [compound 5691] | Strong (0.01 mM)
4-(2,5-dichlorothiophen-3-yl)butanoic acid [compound 597] | Moderate (0.1 mM)
2-(2-chloro-1,3-benzothiazol-4-yl)-2,2-difluoroacetic acid [compound 5786] | Moderate (0.1 mM)
2-(2-bromopyridin-4-yl)ethan-1-amine [compound 688] | Weak (Higher than 0.1 mM)
O=C(O)/C=C/c1cccnc1Br [compound 6605, (2E)-3-(2-bromopyridin-3-yl)prop-2-enoic acid] | Strong (0.01 mM)
[(2,5-dichlorothiophen-3-yl)methyl]hydrazine [compound 5610] | Weak (Higher than 0.1 mM)
NCCSCCc1ccsc1 [compound 5603, 2-{[2-(thiophen-3-yl)ethyl]sulfanyl}ethan-1-amine] | Weak (Higher than 0.1 mM)
3-{[(2,5-dichlorothiophen-3-yl)methyl]amino}-2,2-difluoropropanoic acid [compound 5624] | Weak (Higher than 0.1 mM)
O=C(O)/C=C/c1cccc(Cl)n1 [compound 6603, (2E)-3-(6-chloropyridin-2-yl)prop-2-enoic acid] | Weak (Higher than 0.1 mM)
2-(6-bromopyrimidin-4-yl)ethan-1-amine [compound 6621] | Strong (0.01 mM)
N′-[2-(2,5-dichlorothiophen-3-yl)ethyl]-N-(3-hydroxypropyl)guanidine [compound 5725] | Moderate (0.1 mM)
O=C(O)c1cnc2sc(Cl)nc2c1 [compound 5683, 2-chloro[1,3]thiazolo[54-b]pyridine-6-carboxylic acid] | Moderate (0.1 mM)
O=C(O)C(F)(F)c1cccc(-c2ccc(C(F)(F)F)cc2F)n1 [compound 6659, 2,2-difluoro-2-{6-[2-fluoro-4-(trifluoromethyl)phenyl]pyridin-2-yl}acetic acid] | Moderate (0.1 mM)
O=C(O)/C=C/c1cccnc1Cl [compound 6604, (2E)-3-(2-chloropyridin-3-yl)prop-2-enoic acid] | Moderate (0.1 mM)
2-(2-phenoxypyridin-4-yl)ethan-1-amine [compound 6625] | Weak (Higher than 0.1 mM)
Cl.N=C(N)c1cccc(Br)n1 [compound 6634, 6-bromopyridine-2-carboximidamide hydrochloride[HCl]] | Weak (Higher than 0.1 mM)
O=C(O)/C=C/c1ccc(Cl)nc1Cl [compound 694, (2E)-3-(2,6-dichloropyridin-3-yl)prop-2-enoic acid] | Moderate (0.1 mM)
O=C(O)C(F)(F)c1csc(-c2ccc(C(F)(F)F)cc2F)n1 [compound 5763, 2,2-difluoro-2-{2-[2-fluoro-4-(trifluoromethyl)phenyl]-1,3-thiazol-4-yl}acetic acid] | Moderate (0.1 mM)
(2E)-3-(5-chlorothiophen-2-yl)prop-2-enoic acid [compound 5607] | Moderate (0.1 mM)

Compound | Score (activity score of Minimal Effective Concentration, MEC)
[(2-bromo-1,3-thiazol-4-yl)(difluoro)methyl]phosphonic acid [compound 5737] | Weak (Higher than 0.1 mM)
NC(=O)Nc1ccnc(Br)c1 [compound 6602, (2-bromopyridin-4-yl)urea] | Weak (Higher than 0.1 mM)
O=C(O)c1nc(Cl)sc1Cl [compound 596, 2,5-dichloro-1,3-thiazole-4-carboxylic acid] | Weak (Higher than 0.1 mM)
NC(=O)Cc1ccsc1 [compound 591, 2-(thiophen-3-yl)acetamide] | moderate
3-(1H-1,2,4-triazol-1-yl)propanoic acid [compound 5628] | Weak (Higher than 0.1 mM)
O=C(O)C(F)(F)c1cscc1C(F)(F)F [compound 5764, difluoro[4-(trifluoromethyl)thiophen-3-yl]acetic acid] | Strong (0.01 mM)
O=C(O)C(F)(F)c1ccc2[nH]c(=O)[nH]c2c1 [compound 5654, 2,2-difluoro-2-(2-oxo-23-dihydro-1H-1,3-benzodiazol-5-yl)acetic acid] | Weak (Higher than 0.1 mM)
O=C(O)C(F)(F)c1csc([N+](=O)[O-])n1 [compound 5719, 2,2-difluoro-2-(2-nitro-1,3-thiazol-4-yl)acetic acid] | Moderate (0.1 mM)
2-(2,5-dichlorothiophen-3-yl)-2-oxoacetic acid [compound 5631] | Weak (Higher than 0.1 mM)
ethyl difluoro[5-(trifluoromethyl)thiophen-3-yl]acetate [compound 5707] | Weak (Higher than 0.1 mM)
NC(N)=NCCCc1cc(Cl)sc1Cl [compound 5765, N″-[3-(2,5-dichlorothiophen-3-yl)propyl]guanidine] | Strong (0.01 mM)
difluoro[4-(trifluoromethyl)-1,3-thiazol-2-yl]acetic acid [compound 5760] | Moderate (0.1 mM)
2-(2,6-dibromopyridin-4-yl)ethan-1-amine [compound 6612] | Moderate (0.1 mM)
O=C(O)/C=C/c1cncs1 [compound 5608, (2E)-3-(1,3-thiazol-5-yl)prop-2-enoic acid] | Weak (Higher than 0.1 mM)
2,2-difluoro-2-{6-[2-(trifluoromethyl)-1,3-thiazol-4-yl]pyridin-2-yl}acetic acid [compound 6658] | Moderate (0.1 mM)
NCCc1ccsc1 [compound 588, 2-(thiophen-3-yl)ethan-1-amine] | weak
propyl[2-(1H-1,2,4-triazol-3-yl)ethyl]amine [compound 5660] | Weak (Higher than 0.1 mM)
Cl.Nc1nc2c(s1)CCCC2C(=O)O (centres unmarked) [compound 5673, 2-amino-4567-tetrahydro-1,3-benzothiazole-4-carboxylic acid hydrochloride] | <moderate
(2E)-3-(3-chloro-1H-1,2,4-triazol-5-yl)prop-2-enoic acid [compound 5621] | Weak (Higher than 0.1 mM)
[3-(2-bromo-1,3-thiazol-4-yl)propyl]phosphonic acid [compound 5774] | Weak (Higher than 0.1 mM)
N-(6-bromopyridin-2-yl)guanidine hydrochloride [compound 6637] | Weak (Higher than 0.1 mM)
2-(1,2,3-thiadiazol-4-yl)acetic acid [compound 5748] | Moderate (0.1 mM)
O=C(O)C(=O)/C=C/c1cc(Cl)sc1Cl [compound 5620, (3E)-4-(2,5-dichlorothiophen-3-yl)-2-oxobut-3-enoic acid] | Weak (Higher than 0.1 mM)
